Laboratory results as given in patent publication US20120214802A1, “PYRROLIDINE COMPOUNDS WHICH INHIBIT BETA-SECRETASE ACTIVITY AND METHODS OF USE THEREOF” (priority 2009, published 2012).
pIC50, pKi: −log10 of the molar value. Where two headings read alike, the source gives them in different places.

How the values were obtained:
[1] = target: memapsin 2 (Homo sapiens, UniProt P56817); assay: Inhibition of memapsin 2 beta-secretase activity (fluorogenic substrate FS-2); format: biochemical; conditions: pH 4, 37° C., read-out: M2 Ki
memapsin 2 (Homo sapiens, UniProt P56817), sequence (P56817 46-501): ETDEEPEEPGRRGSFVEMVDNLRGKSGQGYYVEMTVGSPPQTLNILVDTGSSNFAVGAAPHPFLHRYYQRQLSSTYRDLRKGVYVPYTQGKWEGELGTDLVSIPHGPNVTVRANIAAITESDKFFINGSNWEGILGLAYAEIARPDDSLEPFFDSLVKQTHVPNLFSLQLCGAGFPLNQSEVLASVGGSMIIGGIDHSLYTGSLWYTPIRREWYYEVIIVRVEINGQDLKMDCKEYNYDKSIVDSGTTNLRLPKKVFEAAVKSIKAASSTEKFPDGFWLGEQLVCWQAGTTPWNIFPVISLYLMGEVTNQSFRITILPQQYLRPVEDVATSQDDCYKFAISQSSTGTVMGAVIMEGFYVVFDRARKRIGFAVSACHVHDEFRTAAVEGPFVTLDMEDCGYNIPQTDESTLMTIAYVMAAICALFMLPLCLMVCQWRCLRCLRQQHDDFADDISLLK
Summary of the method: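 Memapsin 2 pre-incubated with compound for 20 min at pH 4, 37° C. Reaction started with fluorogenic substrate FS-2, […], derived from Swedish-variant APP beta-secretase site; inhibition measured from fluorescence.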

[2] = target: T1, memapsin 2 (Cricetulus griseus, UniProt G3IAK4); assay: Cellular Aβ IC50 determination (Aβ40 sandwich ELISA); format: cell-based, Chinese hamster; conditions: CHO cells over-expressing human APP695 with London and Swedish mutations, 24 h, read-out: M2 IC50
T1 construct: endogenous in cells; host or cells: Chinese hamster ovary cells over-expressing human APP695 (London + Swedish)
T1 sequence (G3IAK4 22-501): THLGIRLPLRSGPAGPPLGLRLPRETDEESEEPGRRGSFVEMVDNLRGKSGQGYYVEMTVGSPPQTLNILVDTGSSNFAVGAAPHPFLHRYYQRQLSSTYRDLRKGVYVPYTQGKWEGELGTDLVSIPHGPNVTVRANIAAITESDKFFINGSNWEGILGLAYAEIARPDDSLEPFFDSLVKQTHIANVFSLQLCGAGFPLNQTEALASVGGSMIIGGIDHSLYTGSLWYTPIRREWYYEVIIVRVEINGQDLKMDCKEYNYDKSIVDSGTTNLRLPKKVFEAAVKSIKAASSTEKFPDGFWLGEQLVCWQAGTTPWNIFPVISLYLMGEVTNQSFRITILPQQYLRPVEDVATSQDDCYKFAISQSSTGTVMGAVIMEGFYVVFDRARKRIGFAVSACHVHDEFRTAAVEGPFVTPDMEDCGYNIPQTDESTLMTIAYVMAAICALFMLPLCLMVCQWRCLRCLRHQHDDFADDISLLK
Summary of the method: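 CHO cells overexpressing human APP695 (London and Swedish mutations) treated 48 h post-seeding with serially diluted compounds (top near 4 μM, 0.4% DMSO), 24 h at 37° C, 5% CO2. Medium Aβ40 measured by sandwich ELISA; levels relative to control fitted to 4-parameter IC50 model.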

[3] = target: T2, CYP3A4 (Homo sapiens, UniProt P08684); assay: CYP3A4 inhibition (midazolam metabolism in human liver microsomes); format: in vitro ADME; conditions: substrate midazolam
T2 construct: host or cells: human liver microsomes
T2 sequence (P08684 whole entry): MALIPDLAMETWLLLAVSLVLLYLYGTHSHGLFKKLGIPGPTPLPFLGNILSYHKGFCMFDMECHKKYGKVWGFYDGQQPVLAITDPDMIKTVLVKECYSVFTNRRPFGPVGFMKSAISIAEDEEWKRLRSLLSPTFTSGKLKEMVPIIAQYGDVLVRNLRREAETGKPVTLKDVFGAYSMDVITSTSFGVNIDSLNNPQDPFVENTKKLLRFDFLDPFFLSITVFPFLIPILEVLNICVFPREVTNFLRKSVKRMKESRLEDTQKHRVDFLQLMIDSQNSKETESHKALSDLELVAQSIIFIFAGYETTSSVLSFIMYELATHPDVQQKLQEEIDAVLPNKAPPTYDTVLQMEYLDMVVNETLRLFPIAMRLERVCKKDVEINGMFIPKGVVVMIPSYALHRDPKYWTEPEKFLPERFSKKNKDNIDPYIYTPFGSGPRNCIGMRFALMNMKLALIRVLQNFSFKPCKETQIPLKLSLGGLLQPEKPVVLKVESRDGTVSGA
Experimental: To evaluate the drug-drug interaction potential for compounds, the potency to inhibit the major metabolic cytochrome CYP450 isoform 3A4 was assessed. The inhibition constant Ki was determined for inhibition of the metabolism of midazolam, a CYP3A4 substrate.
CYP3A4 Ki assays were performed following a recently published protocol with slight modifications (Di, L., Kerns, E. H., Li, S. Q., and Carter, G. T. (2007) Comparison of cytochrome P450 inhibition assays for drug discovery using human liver microsomes with LC-MS, rhCYP450 isozymes with fluorescence, and double cocktail with LC-MS. International Journal of Pharmaceutics 335: 1-11). The P450 inhibition assay was performed in 96-well plates at 37.2° C. in a shaking incubator. The compounds were diluted from 5 mM stocks in 100% DMSO and incubated at seven final concentrations from 0.078 to 10 μM (0.1% DMSO in each final incubation), with human liver microsomes (HLM) at a final protein concentration of 0.1 mg/mL protein and a substrate concentration ranging from 1.25 to 10 μM.
The assay was standardized for both phosphate buffer (100 mM, pH 7.4) and the NADPH regenerating system (MgCl2, 3.3 mM; G6P, 3.3 mM; G6PD, 1 U/ml; NADP+, 1.3 mM). Eight replicate control samples (0.1% DMSO, no compound) were prepared. Assays (200 μL) were set up by mixing HLM+substrate stock, 10 μL of test article in 2% DMSO, and the substrate before initiating the reaction with the addition of the regenerating system mixture. Reactions were quenched following incubation for 20, 30 and 40 minutes as described following.
After incubation for the specified time in a humidified shaking incubator, 20 μL of the reaction mixture was removed and the reactions were terminated by adding 200 μL of cold acetonitrile. Samples were centrifuged at 1000×g for 15 minutes in Solvinert filter plate. The receptor plate was dried via speed vacuum at 40° C. The sample was reconstituted with a reconstitution buffer composed of 10% acetonitrile, 10% DMSO, 80% H2O with an internal standard added at a concentration of 100 ng/ml. MS-Analysis was completed using LC-MS/MS. Formation of 1′-hydroxymidazolam was measured by monitoring a specific SRM (342>203) transition for the CYP3A4 metabolite.
Data were expressed as the relative quantity of midazolam metabolite relative to control incubations. Initial velocities were obtained by multiplying the relative quantity by the initial substrate concentration and dividing by the incubation duration. Data were transformed to inverse of inivital velocity and expressed vs. inhibitor concentration [I] for determination of Ki by the Dixon method (Dixon, M. (1953) Biochemical Journal 55: 170-171) using where intercept [I]=−Ki was determined at multiple substrate concentrations.

[4] = Hepatic intrinsic clearance in liver microsomes; format: in vitro ADME; conditions: human, pH 7.4, human liver microsomes
Experimental: To 500 μl of 200 mM Na^+K^+phosphate buffer (pH 7.4), 100 μl of 1 mM EDTA solution was added followed by 100 μl of 2 mg protein/ml human liver microsomes. A 10 μl aliquot of test compound (20 mM stock in 50% acetonitrile) was diluted further with 40 μl of H2O (total assay volume […]. Assay mixture is incubated for 5 minutes at 37° C. The assay was initiated by addition of 250 μl of 4 mM NADPH solution. Incubation was continued at 37° C. Separate reaction mixtures were prepared for 0, 5, 10, 20, and 30 min durations. Individual reactions were halted by addition of 150 μl of 100% acetonitrile. Internal standard (10 μl of 100 ng/ml diazepam solution) was added. Concentration of the test compound in each separate reaction was measured using LC/MS/MS and a standard curve for the test compound according to standard procedures.
The hepatic intrinsic clearance in liver microsome was determined by the following procedure described by Davies and Morris (Davies, B. and Morris, T. (19930) Physiological parameters in laboratory animals and humans. Pharm Res. 10:1093-1095) detailing the relationship of in vitro clearance to physiological parameters in animals and human subjects.
The amount of compound remaining at each time point was expressed relative to the amount present in the initial (0 min) incubation. The relationship of relative amount vs. time was used to determine the half life of the compound in the microsome assay. The concentration independent rate constant, k1, was determined from rectangular hyperbolic fit:
where T is time (in minutes), from the relationship of relative amount vs. time. Alternatively, k1 was determined from a transform of the equation, where
Conversion to in vivo clearance was obtained from the relation (Davies and Morris, 1993):
where v=velocity of metabolism, [S] is the concentration of the compound, and volumes are expressed in mL.

[5] = in vitro clearance, read-out: HLM CL

SMILES	pKi [1]	pIC50 [2]	pKi ([3]; read-out: CYP 3A4Ki)	CLint scaled at 200 μM [4, 5]	pKi [3]	CLint scaled at 200 μM ([4]; read-out: hepatic intrinsic clearance in liver microsomes (HLMCL))
Cc1csc(CN(C)C(=O)c2cccc(C(=O)N[C@@H](Cc3cc(F)cc(F)c3)[C@H](O)[C@H]3CCCN3)c2)n1 [1-41, N1-((1R,2S)-3-(3,5-difluorophenyl)-1-hydroxy-1-((R)-pyrrolidin-2-yl)propan-2-yl)-N3-methyl-N3-((4-methylthiazol-2-yl)methyl)isophthalamide]	> 6.60	< 6.00	< 5.00	< 24 L/h/kg	–	–
Cc1csc([C@H]2CCCN2C(=O)c2cc(C(=O)N[C@@H](Cc3ccccc3)[C@H](O)CNCc3cncc(C(C)C)c3)cc(-c3ccco3)c2)n1 [2-2, 3-(furan-2-yl)-N-((2S,3R)-3-hydroxy-4-((5-isopropylpyridin-3-yl)methylamino)-1-phenylbutan-2-yl)-5-((R)-2-(4-methylthiazol-2-yl)pyrrolidine-1-carbonyl)benzamide, reference compound]	> 6.60	> 6.30	> 6.00	> 42 L/h/kg	–	–
Cc1cc(C(=O)N[C@@H](Cc2ccccc2)[C@H](O)CNCc2cncc(C(C)(C)C)c2)cc(C(=O)N2CCC[C@@H]2c2nc(C)co2)c1 [2-3, N-((2S,3R)-4-((5-tert-butylpyridin-3-yl)methylamino)-3-hydroxy-1-phenylbutan-2-yl)-3-methyl-5-((R)-2-(4-methyloxazol-2-yl)pyrrolidine-1-carbonyl)benzamide, reference compound]	> 6.60	> 6.30	> 6.00	> 42 L/h/kg	6.14	> 60 L/h/kg
Cc1coc([C@H]2CCCN2C(=O)c2cccc(C(=O)N[C@@H](Cc3ccccc3)[C@H](O)CNCc3cncc(C(C)(C)C)c3)c2)n1 [2-4, N-((2S,3R)-4-((5-tert-butylpyridin-3-yl)methylamino)-3-hydroxy-1-phenylbutan-2-yl)-3-((R)-2-(4-methyloxazol-2-yl)pyrrolidine-1-carbonyl)benzamide, reference compound]	> 6.60	> 6.30	> 6.00	> 42 L/h/kg	–	–
CCn1cc(CNC[C@@H](O)[C@H](Cc2ccccc2)NC(=O)c2cc(C)cc(C(=O)N3CCC[C@@H]3c3nc(C)co3)c2)cn1 [2-5, N-((2S,3R)-4-((1-ethyl-1H-pyrazol-4-yl)methylamino)-3-hydroxy-1-phenylbutan-2-yl)-3-methyl-5-((R)-2-(4-methyloxazol-2-yl)pyrrolidine-1-carbonyl)benzamide, reference compound]	> 6.60	> 6.30	5.30 to 6.00	> 42 L/h/kg	–	–
Cc1coc([C@H]2CCCN2C(=O)c2cc(CF)cc(C(=O)N[C@@H](Cc3ccccc3)[C@H](O)CNCc3cccc(C(C)(C)C)c3)c2)n1 [2-7, N-((2S,3R)-4-(3-tert-butylbenzylamino)-3-hydroxy-1-phenylbutan-2-yl)-3-(fluoromethyl)-5-((R)-2-(4-methyloxazol-2-yl)pyrrolidine-1-carbonyl)benzamide, reference compound]	> 6.60	> 6.30	5.30 to 6.00	> 42 L/h/kg	–	–
